In patent US20150004134A1, “TREATMENT OF CANCER WITH HETEROCYCLIC INHIBITORS OF GLUTAMINASE” (Calithera Biosciences, Inc., priority 2012, published 2015) one finds IC50 data, which are given here for 61 compounds.

Where two headings read alike, the source gives them in different places.

In this assay the test system is P493-6 (myc "on") cells. Kind of assay: Cell Proliferation Assay. It counts as cell-based. The note with it: P493-6, 72 h. In outline: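 P493-6 cells with myc on, 10,000 per well in RPMI/10% FBS, exposed to serially diluted compound (0.5% DMSO final) for 72 h at 37 °C, 5% CO2. Antiproliferative effect read by Cell Titer Glo luminescence or Viacount FACS viability count.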

Where [1] appears, read: read-out: Cell prolif P493 72 h IC50, P493 cells, 72 h.
[2] abbreviates: read-out: Cell prolif P493 72 h IC50, P493-6 cells, 72 h.

A word on the IC50: it is the midpoint of a concentration-inhibition curve. Take `O=C(Cc1ccccc1)Nc1nnc(CCCc2nnc(NC(=O)Cc3ccccc3)s2)s1` [Compound 72, N,N′-[5,5′-(propane-1,3-diyl)-bis(1,3,4-thiadiazole-5,2-diyl)]-bis(2-phenylacetamide)]: the IC50 under setting [1] is 470 nM. Same read-out and setting: under `O=C(Nc1nnc(CCSCCc2nnc(NC(=O)C3Oc4ccccc4O3)s2)s1)C1Oc2ccccc2O1` [Compound 134] stands 28000 nM; under `COC(=O)Nc1nnc(CCCCc2nnc(NC(=O)Cc3ccccc3)s2)s1` [Compound 387], 2300 nM; under `O=C(Nc1nnc(CCSCCc2nnc(NC(=O)[C@@H](O)c3ccccc3)s2)s1)[C@@H](O)c1ccccc1` [Compound 93], 2000 nM. Consider `NCc1ccc(CC(=O)Nc2nnc(CCCCc3ccc(NC(=O)Cc4ccccc4)nn3)s2)cc1` [Compound 407], for which the IC50 under setting [2] came to 44 nM. For `O=C(Cn1ccc2ccccc21)Nc1nnc(CCSCCc2nnc(NC(=O)Cn3ccc4ccccc43)s2)s1` [Compound 213], under setting [1], the IC50 worked out at 4400 nM. `O=C(Cc1ccccc1F)Nc1nnc(CCCCc2nnc(NC(=O)Cc3ccccc3F)s2)s1` [Compound 292]: under setting [1], the IC50 turned out to be 12 nM.

Regarding `Nc1nnc(CCCCc2nnc(NC(=O)C(CO)c3ccccc3)s2)s1` (stereo not shown) [Compound 227], under setting [1], the half-inhibitory concentration (IC50) came to 3300 nM.

With `COCC(C(=O)Nc1nnc(CCSCCc2nnc(NC(=O)C(COC)c3ccccc3)s2)s1)c1ccccc1` (stereo not shown) [Compound 204], the IC50 under setting [1] worked out at 2400 nM. On the same count and under the same terms, under `O=C(Nc1nnc(CCSCCc2nnc(NC(=O)C3CCOC3)s2)s1)C1CCOC1` (stereo not shown) [Compound 95] stands 45000 nM. On the same count and under the same terms, under `CC(=O)OC(C(=O)Nc1nnc(CCCCc2nnc(NC(=O)C(OC(C)=O)c3ccccc3)s2)s1)c1ccccc1` (stereo not shown) [Compound 173] stands 760 nM; under `O=C(Cc1ccccc1)Nc1nnc(CCCCc2nnc(NC(=O)C(O)(CO)c3ccccc3)s2)s1` (stereo not shown) [Compound 280], 230 nM. With `O=C(Cc1ccccc1)Nc1ccc(CCCCc2nnc(NC(=O)Cc3cccc4c3CNC4)s2)nn1` [Compound 650], the IC50 under setting [2] was 140 nM. For the compound `Cc1nnc(Cc2cccc(CC(=O)Nc3ccc(CCCCc4nnc(NC(=O)Cc5ccccc5)s4)nn3)c2)o1` [Compound 652, 2-(3-((5-methyl-1,3,4-oxadiazol-2-yl)methyl)phenyl)-N-(6-(4-(5-(2-phenylacetamido)-1,3,4-thiadiazol-2-yl)butyl)pyridazin-3-yl)acetamide], the IC50 under setting [2] stood at 39 nM. For `O=C(OCC(C(=O)Nc1nnc(CCCCc2nnc(NC(=O)C(COC(=O)C3CCN(C(=O)OCc4ccccc4)CC3)c3ccccc3)s2)s1)c1ccccc1)C1CCN(C(=O)OCc2ccccc2)CC1` (stereo not shown) [Compound 301], under setting [1], the IC50 stood at 230 nM.

Turning to `O=C(Cc1cccc(CN2CCNCC2)c1)Nc1nnc(CCCCc2nnc(NC(=O)Cc3cccc(CN4CCNCC4)c3)s2)s1` [Compound 286], the half-maximal inhibitory concentration (IC50) under setting [1] was 6400 nM. On the same count and under the same terms, under `O=C(Cc1cccc(Br)c1)Nc1nnc(CCSCCc2nnc(NC(=O)Cc3cccc(Br)c3)s2)s1` [Compound 270] stands 850 nM. Take `O=C(Cc1ccccc1)Nc1ccc(CCCCc2nnc(NC(=O)Cc3cccc(Cl)c3)s2)nn1` [Compound 335]: the IC50 under setting [1] was found to be 50 nM. Consider `CC(=O)Nc1ccc(CCCCc2nnc(NC(=O)Cc3cccc(CNC(=O)CC(C)C)c3)s2)nn1` [Compound 461], for which, under setting [2], the IC50 stood at 62 nM. Turning to `O=C(Cc1ccccc1F)Nc1nnc(CCSCCc2nnc(NC(=O)Cc3ccccc3F)s2)s1` [Compound 294], the IC50 under setting [1] came to 1100 nM. With `O=C(Nc1nnc(CCCCc2nnc(NC(=O)C3COc4ccccc4O3)s2)s1)C1COc2ccccc2O1` (stereo not shown) [Compound 52], the IC50 under setting [1] was 30000 nM. The same measure, in the same setting: under `COc1ccc2c(c1)CC(C(=O)Nc1nnc(CCSCCc3nnc(NC(=O)C4Cc5cc(OC)ccc5O4)s3)s1)O2` (stereo not shown) [Compound 117] stands 6200 nM; under `CC(C(=O)Nc1nnc(CCSCCc2nnc(N)s2)s1)c1ccccc1` (stereo not shown) [Compound 20], 2600 nM; under `O=C(Cc1cccc(-n2cccn2)c1)Nc1nnc(CCCCc2nnc(NC(=O)Cc3cccc(-n4cccn4)c3)s2)s1` [Compound 285], 140 nM.

Consider `O=C1CC(C(=O)Nc2nnc(CCCCc3nnc(NC(=O)C4CC(=O)c5ccccc54)s3)s2)c2ccccc21` (stereo not shown) [Compound 64], for which the IC50 under setting [1] came to 230 nM. In the case of `CC(C)NC(=O)Nc1nnc(CCCCc2nnc(NC(=O)Cc3ccccc3)s2)s1` [Compound 438], the IC50 under setting [2] came to 880 nM.

Regarding `COC(C(=O)Nc1nnc(CCSCCc2nnc(NC(=O)C(OC)c3ccccc3)s2)s1)c1ccccc1` (stereo not shown) [Compound 67], the IC50 under setting [1] was found to be 1800 nM.

As to `CC(C)CC(=O)Nc1nnc(CCSCCc2nnc(NC(=O)CC(C)C)s2)s1` [Compound 4], the half-inhibitory concentration (IC50) under setting [1] is more than 50000 nM. With `O=C(Cc1cccnc1)Nc1nnc(CCSCCc2nnc(NC(=O)Cc3cccnc3)s2)s1` [Compound 638], the IC50 under setting [2] is 5700 nM. On to `CN(C)c1ccc(CC(=O)Nc2nnc(CCSCCc3nnc(NC(=O)Cc4ccc(N(C)C)cc4)s3)s2)cc1` [Compound 162], for which, under setting [1], the IC50 stood at 150 nM.

With `CC1(C(=O)Nc2nnc(CCCCc3nnc(NC(=O)C4(C)CCCO4)s3)s2)CCCO1` (stereo not shown) [Compound 123], under setting [1], the IC50 is 6600 nM. The same measure, in the same setting: under `O=C(Nc1nnc(CCCCc2nnc(NC(=O)C3Cc4ccccc4O3)s2)s1)C1Cc2ccccc2O1` (stereo not shown) [Compound 51] stands 1300 nM.

For the compound `O=C(Cc1cccc(OCCN2CCOCC2)c1)Nc1nnc(CCSCCc2nnc(NC(=O)Cc3cccc(OCCN4CCOCC4)c3)s2)s1` [Compound 240], the IC50 under setting [1] was found to be 1300 nM.

As to `COC(C(=O)Nc1nnc(CCCCc2ccc(NC(=O)Cc3cccc(CNC(=O)OC(C)(C)C)c3)nn2)s1)c1ccccc1` (stereo not shown) [Compound 509], under setting [2], the IC50 came to 9 nM. With `O=C(Nc1nnc(CCCCc2nnc(NC(=O)C3(c4ccccc4)CCOCC3)s2)s1)C1(c2ccccc2)CCOCC1` [Compound 166], under setting [1], the IC50 turned out to be 6800 nM.

On to `CC(CCc1nnc(NC(=O)Cc2ccccc2)s1)Cc1nnc(NC(=O)Cc2ccccc2)s1` (stereo not shown) [Compound 44], for which the concentration for half-maximal inhibition (IC50) under setting [1] was determined as 2600 nM. Turning to `C=CCC(C(=O)Nc1nnc(CCCCc2nnc(NC(=O)C(CC=C)c3ccccc3)s2)s1)c1ccccc1` (stereo not shown) [Compound 209], the half-maximal inhibitory concentration (IC50) under setting [1] was 22000 nM. `COc1cccc(C(CO)C(=O)Nc2nnc(CCCCc3nnc(NC(=O)C(CO)c4cccc(OC)c4)s3)s2)c1` (stereo not shown) [Compound 257]: the IC50 under setting [1] was 73 nM. `CCCOc1ccc(C(O)C(=O)Nc2nnc(CCCCc3ccc(NC(=O)Cc4ccccc4)nn3)s2)cc1` (stereo not shown) [Compound 558]: the IC50 under setting [2] was found to be 28 nM. For the compound `CS(=O)(=O)c1cccc(CC(=O)Nc2nnc(CCSCCc3nnc(NC(=O)Cc4cccc(S(C)(=O)=O)c4)s3)s2)c1` [Compound 158], the IC50 under setting [1] amounted to 8100 nM. Regarding `COCCC(=O)Nc1nnc(CCSCCc2nnc(NC(=O)CCOC)s2)s1` [Compound 101], the IC50 under setting [1] came to 17000 nM. The same measure, in the same setting: under `CN(C)c1ccc(CC(=O)Nc2nnc(CCCCc3nnc(NC(=O)Cc4ccc(N(C)C)cc4)s3)s2)cc1` [Compound 164] stands 130 nM. On to `CC(=O)O[C@H](C(=O)Nc1nnc(CCSCCc2nnc(NC(=O)[C@@H](OC(C)=O)c3ccccc3)s2)s1)c1ccccc1` [Compound 71], for which the IC50 under setting [1] was 6900 nM.

Take `Cc1ccccc1CC(=O)Nc1nnc(CCCCc2ccc(NC(=O)Cc3ccccc3Cl)nn2)s1` [Compound 535]: the IC50 under setting [2] came out at 90 nM. For the compound `O=C(Nc1ccc(CCCCc2nnc(NC(=O)C(O)c3cccc(Cl)c3)s2)nn1)C(O)c1cccc(Cl)c1` (stereo not shown) [Compound 446], under setting [2], the IC50 stood at 150 nM. Same read-out and setting: under `CC(NC(=O)OC(C)(C)C)c1cc(CC(=O)Nc2nnc(CCCCc3ccc(NC(=O)Cc4ccccc4)nn3)s2)ccc1F` (stereo not shown) [Compound 653] stands 10 nM. Take `CC(=O)N[C@@H](C(=O)Nc1nnc(CCSCCc2nnc(NC(=O)[C@H](NC(C)=O)c3ccccc3)s2)s1)c1ccccc1` [Compound 128]: the IC50 under setting [1] was more than 50000 nM. Still for that read-out and setting: under `O=C(Nc1nnc(CCCCc2nnc(NC(=O)C3COc4ccccc43)s2)s1)C1COc2ccccc21` (stereo not shown) [Compound 135] stands 490 nM. Take `O=C(Cc1ccccc1)Nc1ccc(CCCCc2nnc(NC(=O)Cc3cccc(CN4CCCCC4=O)c3)s2)nn1` [Compound 476]: the IC50 under setting [2] came to 12 nM. On the same count and under the same terms, under `O=C(Cc1ccccc1)Nc1ccc(CCCCc2nnc(NC(=O)C(O)c3cccc(Br)c3)s2)nn1` (stereo not shown) [Compound 415] stands 18 nM; under `CCCC(=O)OCN(C(=O)C(CO)c1cccc(CNC(=O)OC(C)(C)C)c1)c1nnc(CCCCc2ccc(NC(=O)Cc3ccccc3)nn2)s1` (stereo not shown) [Compound 567], 21 nM.

Consider `COc1ccccc1CC(=O)Nc1nnc(CCSCc2nnc(NC(=O)Cc3ccccc3OC)s2)s1` [Compound 249], for which the IC50 under setting [1] was determined as 160 nM. Same read-out and setting: under `O=C(C[C@@H](O)c1ccccc1)Nc1nnc(CCSCCc2nnc(NC(=O)C[C@@H](O)c3ccccc3)s2)s1` [Compound 126] stands 12000 nM. As to `COc1ccccc1CC(=O)Nc1nnc(CCCCc2ccc(NC(=O)Cc3ccccc3Cl)nn2)s1` [Compound 531], the half-inhibitory concentration (IC50) under setting [2] came out at 42 nM. Still for that read-out and setting: under `CC(C(=O)Nc1ccc(CCCCc2nnc(NC(=O)C(C)c3ccccc3)s2)nn1)c1ccccc1` (stereo not shown) [Compound 613] stands 450 nM. Take `COc1ccccc1C(CO)C(=O)Nc1nnc(CCSCCc2nnc(NC(=O)C(CO)c3ccccc3OC)s2)s1` (stereo not shown) [Compound 245]: the IC50 under setting [1] turned out to be 2500 nM.

On to `O=C(Nc1nnc(CCCCc2nnc(NC(=O)C(O)c3cccc(F)c3F)s2)s1)C(O)c1cccc(F)c1F` (stereo not shown) [Compound 211], for which, under setting [1], the IC50 was determined as 1000 nM. Regarding `O=C(Cc1ccccc1)Nc1nnc(CCSCc2nnc(NC(=O)Cc3cccc(Cl)c3)s2)s1` [Compound 372], the IC50 under setting [1] was 150 nM. Regarding `CC(=O)Nc1nnc(CCCCc2ccc(NC(=O)Cc3cccc(CNC(=O)OC(C)(C)C)c3)nn2)s1` [Compound 491], under setting [2], the half-maximal inhibitory concentration (IC50) came out at 23 nM. As for `CC(C)(C)OC(=O)N[C@@H](C(=O)Nc1nnc(CCSCCc2nnc(NC(=O)[C@H](NC(=O)OC(C)(C)C)c3ccccc3)s2)s1)c1ccccc1` [Compound 46], the half-maximal inhibitory concentration (IC50) under setting [1] is 16000 nM. On the same count and under the same terms, under `O=C(Nc1nnc(CCCCc2nnc(NC(=O)C(O)(CO)c3ccccc3)s2)s1)C(O)(CO)c1ccccc1` (stereo not shown) [Compound 278] stands 160 nM.
